Data reported in the NIST ThermoML archive (doi:10.1021/acs.jced.5b00343).

Assays:
[1] = 101 kPa, Liquid; for speed of sound: Frequency=1.5 MHz, Sing-around technique in a fixed-path interferometer; for mass density: Vibrating tube method
[2] = refractive index (Na D-line) (dimensionless); settings: 101 kPa, Liquid, Standard Abbe refractometry

CCCCO [butan-1-ol]
Settings | mass density, [1] [kg/m3] | refractive index, [2] | speed of sound, [1] [m/s]
303.15 K | 802.01 | 1.3948 | 1222.7
308.15 K | 798.14 | 1.3927 | 1206.3
313.15 K | 794.22 | 1.3907 | 1189.4
318.15 K | 790.28 | 1.3875 | 1172.8
323.15 K | 786.29 | 1.3848 | 1156.7
